Data reported in patent US12077503B2, “Substituted cyclic amides and their use as herbicides” (FMC CORPORATION, priority 2015, dated 2024).

Legend:
Type in all cases: in vivo
[1] = test system: rice (Oryra sativa); experiment: Test B flooded paddy test; conditions: Flood, 0 to 100 scale where 0 is no effect and 100 is complete control, 13 to 15 d
Method in brief: (§1)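 Evaluation by eye, against controls, occurred 13–15 d post-treatment in a greenhouse, using a 0 (no effect) to 100 (complete control) scale. Application was into the paddy water, 3 cm deep over the soil, on 2-leaf plants.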

[2] = test system: ducksalad (Heteranthera limosa); experiment: Test B flooded paddy test; conditions: Flood, 0 to 100 scale where 0 is no effect and 100 is complete control, 13 to 15 d
Method in brief: as §1

[3] = test system: sedge, umbrella (small-flower umbrella sedge, Cyperus difformis); experiment: Test B flooded paddy test; conditions: Flood, 0 to 100 scale where 0 is no effect and 100 is complete control, 13 to 15 d
Method in brief: as §1

[4] = test system: barnyardgrass (Echinochloa crus-galli); experiment: Test B flooded paddy test; conditions: Flood, 0 to 100 scale where 0 is no effect and 100 is complete control, 13 to 15 d
Method in brief: as §1

[5] = test system: ragweed (common ragweed, Ambrosia elatior); experiment: Test A preemergence; conditions: for Plant response rating, Ragweed: 125 g ai/ha; for Ragweed plant response rating (0 to 100 scale, 0 is no effect, 100 is complete control): 500 g ai/ha, visual injury approx. 10 d
Method in brief: (§2)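 Seeded soil received test chemicals as a preemergence directed spray, and seedlings at one to two leaves, 2–10 cm tall, received them postemergence, in a non-phytotoxic, surfactant-containing solvent mixture. Pots were held in a greenhouse for approximately 10 d, then rated for injury from 0, no effect, to 100, complete control.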

[6] = test system: ryegrass, Italian (Italian ryegrass, Lolium multiflorum); experiment: Test A preemergence; conditions: for Plant response rating, Ryegrass, Italian: 125 g ai/ha; for Ryegrass, Italian plant response rating (0 to 100 scale, 0 is no effect, 100 is complete control): 500 g ai/ha, visual injury approx. 10 d
Method in brief: as §2

[7] = test system: pigweed (Amaranthus retroflexus); experiment: Test A preemergence; conditions: for Plant response rating, Pigweed: 125 g ai/ha; for Pigweed plant response rating (0 to 100 scale, 0 is no effect, 100 is complete control): 500 g ai/ha, visual injury approx. 10 d
[8] = test system: Kochia (Kochia scoparia); experiment: Test A preemergence; conditions: for Plant response rating, Kochia: 125 g ai/ha, preemergence, 0 to 100 scale (0 no effect, 100 complete control); for Kochia plant response rating (0 to 100 scale, 0 is no effect, 100 is complete control): Preemergence, 500 g ai/ha, visual injury approx. 10 d
Method in brief: as §2

[9] = test system: giant foxtail (Setaria faberii); experiment: Test A preemergence; conditions: for Plant response rating, Foxtail, Giant: 125 g ai/ha, preemergence, 0 to 100 scale (0 no effect, 100 complete control); for Foxtail, Giant plant response rating (0 to 100 scale, 0 is no effect, 100 is complete control): Preemergence, 500 g ai/ha, visual injury approx. 10 d
Method in brief: as §2

[10] = test system: barnyardgrass (Echinochloa crus-galli); experiment: Test A preemergence; conditions: for Plant response rating, Barnyardgrass: 125 g ai/ha, preemergence, 0 to 100 scale (0 no effect, 100 complete control); for Barnyardgrass plant response rating (0 to 100 scale, 0 is no effect, 100 is complete control): Preemergence, 500 g ai/ha, visual injury approx. 10 d
Method in brief: as §2

[11] = test system: ragweed (common ragweed, Ambrosia elatior); experiment: Test A postemergence; conditions: for Ragweed plant response rating: 125 g ai/ha, visual injury rating on 0 to 100 scale (0 no effect, 100 complete control), approx. 10 d; for Plant response rating, Ragweed: 500 g ai/ha
Method in brief: as §2

[12] = test system: ryegrass, Italian (Italian ryegrass, Lolium multiflorum); experiment: Test A postemergence; conditions: for Ryegrass, Italian plant response rating: 125 g ai/ha, visual injury rating on 0 to 100 scale (0 no effect, 100 complete control), approx. 10 d; for Plant response rating, Ryegrass, Italian: 500 g ai/ha
Method in brief: as §2

[13] = test system: pigweed (Amaranthus retroflexus); experiment: Test A postemergence; conditions: for Pigweed plant response rating: 125 g ai/ha, visual injury rating on 0 to 100 scale (0 no effect, 100 complete control), approx. 10 d; for Plant response rating, Pigweed: 500 g ai/ha
Method in brief: as §2

[14] = test system: Kochia (Kochia scoparia); experiment: Test A postemergence; conditions: for Kochia plant response rating: 125 g ai/ha, visual injury rating on 0 to 100 scale (0 no effect, 100 complete control), approx. 10 d; for Plant response rating, Kochia: 500 g ai/ha
Method in brief: as §2

[15] = test system: corn (Zea mays); experiment: Test A postemergence; conditions: postemergence; for Corn plant response rating: 125 g ai/ha, visual injury rating on 0 to 100 scale (0 no effect, 100 complete control), approx. 10 d; for Plant response rating, Corn: 500 g ai/ha, 0 to 100 scale, 0 no effect, 100 complete control
Method in brief: as §2

[16] = test system: Galium (catchweed bedstraw, Galium aparine); experiment: Test A postemergence; conditions: for Galium plant response rating: 125 g ai/ha, visual injury rating on 0 to 100 scale (0 no effect, 100 complete control), approx. 10 d; for Plant response rating, Galium: 500 g ai/ha
Method in brief: as §2

[17] = test system: giant foxtail (Setaria faberii); experiment: Test A postemergence; conditions: for Foxtail, Giant plant response rating: 125 g ai/ha, visual injury rating on 0 to 100 scale (0 no effect, 100 complete control), approx. 10 d; for Plant response rating, Foxtail, Giant: 500 g ai/ha
Method in brief: as §2

[18] = test system: wheat (Triticum aestivum); experiment: Test A postemergence; conditions: for Wheat plant response rating: 125 g ai/ha, visual injury rating on 0 to 100 scale (0 no effect, 100 complete control), approx. 10 d; for Plant response rating, Wheat: 500 g ai/ha
Method in brief: as §2

[19] = test system: blackgrass (Alopecurus myosuroides); experiment: Test A postemergence; conditions: postemergence; for Blackgrass plant response rating: 125 g ai/ha, visual injury rating on 0 to 100 scale (0 no effect, 100 complete control), approx. 10 d; for Plant response rating, Blackgrass: 500 g ai/ha, 0 to 100 scale, 0 no effect, 100 complete control
Method in brief: as §2

[20] = test system: barnyardgrass (Echinochloa crus-galli); experiment: Test A postemergence; conditions: postemergence; for Barnyardgrass plant response rating: 125 g ai/ha, visual injury rating on 0 to 100 scale (0 no effect, 100 complete control), approx. 10 d; for Plant response rating, Barnyardgrass: 500 g ai/ha, 0 to 100 scale, 0 no effect, 100 complete control
Method in brief: as §2

[21] = preemergence, 0 to 100 scale (0 no effect, 100 complete control)
[22] = postemergence, 0 to 100 scale, 0 no effect, 100 complete control
[23] = Preemergence, visual injury after approximately 10 d, 0 to 100 scale where 0 is no effect and 100 is complete control
[24] = Postemergence, 0 to 100 scale where 0 is no effect and 100 is complete control

SMILES: COc1ccc(NC(=O)C2C(=O)NCC2c2ccc(F)c(F)c2)c(F)c1 (stereo not drawn) [Compound 413]
- Plant response rating, Rice ([1]; 500 g ai/ha): 0
- Plant response rating, Ducksalad ([2]; 500 g ai/ha): 0
- Plant response rating, Sedge, Umbrella ([3]; 500 g ai/ha): 0
- Plant response rating, Barnyardgrass ([4]; 500 g ai/ha): 0
- Plant response rating, Ragweed [5, 21]: 0
- Ragweed plant response rating (0 to 100 scale, 0 is no effect, 100 is complete control) ([5]; Preemergence): 0
- Plant response rating, Ryegrass, Italian [6, 21]: 0
- Ryegrass, Italian plant response rating (0 to 100 scale, 0 is no effect, 100 is complete control) ([6]; Preemergence): 0
- Plant response rating, Pigweed [7, 21]: 0
- Pigweed plant response rating (0 to 100 scale, 0 is no effect, 100 is complete control) ([7]; Preemergence): 0
- Plant response rating, Kochia [8]: 0
- Kochia plant response rating (0 to 100 scale, 0 is no effect, 100 is complete control) [8]: 0
- Plant response rating, Foxtail, Giant [9]: 0
- Foxtail, Giant plant response rating (0 to 100 scale, 0 is no effect, 100 is complete control) [9]: 0
- Plant response rating, Barnyardgrass [10]: 0
- Barnyardgrass plant response rating (0 to 100 scale, 0 is no effect, 100 is complete control) [10]: 0
- Ragweed plant response rating ([11]; postemergence): 0
- Plant response rating, Ragweed [11, 22]: 0
- Ryegrass, Italian plant response rating ([12]; postemergence): 0
- Plant response rating, Ryegrass, Italian [12, 22]: 0
- Pigweed plant response rating ([13]; postemergence): 0
- Plant response rating, Pigweed [13, 22]: 0
- Kochia plant response rating ([14]; postemergence): 0
- Plant response rating, Kochia [14, 22]: 0
- Corn plant response rating [15]: 0
- Plant response rating, Corn [15]: 0
- Galium plant response rating ([16]; postemergence): 0
- Plant response rating, Galium [16, 22]: 0
- Foxtail, Giant plant response rating ([17]; postemergence): 0
- Plant response rating, Foxtail, Giant [17, 22]: 0
- Wheat plant response rating ([18]; postemergence): 0
- Plant response rating, Wheat [18, 22]: 0
- Blackgrass plant response rating [19]: 0
- Plant response rating, Blackgrass [19]: 0
- Barnyardgrass plant response rating [20]: 0
- Plant response rating, Barnyardgrass [20]: 0

SMILES: CN1CC(c2ccc(C(F)(F)F)cc2F)C(C(=O)Nc2ccc(F)cc2F)C1=O (stereo not drawn) [Compound 474]
- Plant response rating, Rice ([1]; 250 g ai/ha): 0
- Plant response rating, Ducksalad ([2]; 250 g ai/ha): 80
- Plant response rating, Sedge, Umbrella ([3]; 250 g ai/ha): 0
- Plant response rating, Barnyardgrass ([4]; 250 g ai/ha): 30
- Plant response rating, Ragweed [5, 23]: 0
- Ragweed plant response rating (0 to 100 scale, 0 is no effect, 100 is complete control) ([5]; Preemergence): 20
- Plant response rating, Ryegrass, Italian [6, 23]: 0
- Ryegrass, Italian plant response rating (0 to 100 scale, 0 is no effect, 100 is complete control) ([6]; Preemergence): 50
- Plant response rating, Pigweed [7, 23]: 30
- Pigweed plant response rating (0 to 100 scale, 0 is no effect, 100 is complete control) ([7]; Preemergence): 90
- Plant response rating, Kochia [8]: 60
- Kochia plant response rating (0 to 100 scale, 0 is no effect, 100 is complete control) [8]: 70
- Plant response rating, Foxtail, Giant [9]: 90
- Foxtail, Giant plant response rating (0 to 100 scale, 0 is no effect, 100 is complete control) [9]: 90
- Plant response rating, Barnyardgrass [10]: 90
- Barnyardgrass plant response rating (0 to 100 scale, 0 is no effect, 100 is complete control) [10]: 90
- Ragweed plant response rating ([11]; postemergence): 0
- Plant response rating, Ragweed [11, 24]: 0
- Ryegrass, Italian plant response rating ([12]; postemergence): 20
- Plant response rating, Ryegrass, Italian [12, 24]: 50
- Pigweed plant response rating ([13]; postemergence): 30
- Plant response rating, Pigweed [13, 24]: 30
- Kochia plant response rating ([14]; postemergence): 50
- Plant response rating, Kochia [14, 24]: 60
- Corn plant response rating [15]: 0
- Plant response rating, Corn [15]: 20
- Galium plant response rating ([16]; postemergence): 40
- Plant response rating, Galium [16, 24]: 50
- Foxtail, Giant plant response rating ([17]; postemergence): 90
- Plant response rating, Foxtail, Giant [17, 24]: 90
- Wheat plant response rating ([18]; postemergence): 0
- Plant response rating, Wheat [18, 24]: 30
- Blackgrass plant response rating [19]: 30
- Plant response rating, Blackgrass [19]: 50
- Barnyardgrass plant response rating [20]: 90
- Plant response rating, Barnyardgrass [20]: 90

SMILES: Cc1cccc(NC(=O)C2C(=O)NCC2c2cccc(OC(F)F)c2)c1F (stereo not drawn) [Compound 420]
- Plant response rating, Rice ([1]; 500 g ai/ha): 25
- Plant response rating, Ducksalad ([2]; 500 g ai/ha): 85
- Plant response rating, Sedge, Umbrella ([3]; 500 g ai/ha): 0
- Plant response rating, Barnyardgrass ([4]; 500 g ai/ha): 65
- Plant response rating, Ragweed [5, 21]: 0
- Ragweed plant response rating (0 to 100 scale, 0 is no effect, 100 is complete control) ([5]; Preemergence): 0
- Plant response rating, Ryegrass, Italian [6, 21]: 0
- Ryegrass, Italian plant response rating (0 to 100 scale, 0 is no effect, 100 is complete control) ([6]; Preemergence): 0
- Plant response rating, Pigweed [7, 21]: 0
- Pigweed plant response rating (0 to 100 scale, 0 is no effect, 100 is complete control) ([7]; Preemergence): 30
- Plant response rating, Kochia [8]: 0
- Kochia plant response rating (0 to 100 scale, 0 is no effect, 100 is complete control) [8]: 30
- Plant response rating, Foxtail, Giant [9]: 90
- Foxtail, Giant plant response rating (0 to 100 scale, 0 is no effect, 100 is complete control) [9]: 90
- Plant response rating, Barnyardgrass [10]: 70
- Barnyardgrass plant response rating (0 to 100 scale, 0 is no effect, 100 is complete control) [10]: 90
- Ragweed plant response rating ([11]; postemergence): 0
- Plant response rating, Ragweed [11, 22]: 0
- Ryegrass, Italian plant response rating ([12]; postemergence): 0
- Plant response rating, Ryegrass, Italian [12, 22]: 0
- Pigweed plant response rating ([13]; postemergence): 0
- Plant response rating, Pigweed [13, 22]: 0
- Kochia plant response rating ([14]; postemergence): 0
- Plant response rating, Kochia [14, 22]: 0
- Corn plant response rating [15]: 0
- Plant response rating, Corn [15]: 0
- Galium plant response rating ([16]; postemergence): 0
- Plant response rating, Galium [16, 22]: 0
- Foxtail, Giant plant response rating ([17]; postemergence): 70
- Plant response rating, Foxtail, Giant [17, 22]: 80
- Wheat plant response rating ([18]; postemergence): 0
- Plant response rating, Wheat [18, 22]: 0
- Blackgrass plant response rating [19]: 0
- Plant response rating, Blackgrass [19]: 0
- Barnyardgrass plant response rating [20]: 80
- Plant response rating, Barnyardgrass [20]: 90
